Laboratory results as given in patent US11452727B2, “Combination therapy for treating cancer” (Epizyme, Inc., priority 2017, dated 2022).

What was measured:
Test in all cases: In vitro combination study with tazemetostat, cell proliferation (Cell Titer Glo)
A427 = conditions: A427; 7 days tazemetostat pre-treatment, 6 days co-treatment with second agent
A549 = conditions: 7 days tazemetostat pre-treatment, 6 days co-treatment with second agent
NCI-H1299 = conditions: 7 days tazemetostat pre-treatment, 6 days co-treatment with second agent
NCI-H1573 = conditions: 7 days tazemetostat pre-treatment, 6 days co-treatment with second agent
NCI-H1703 = conditions: 7 days tazemetostat pre-treatment, 6 days co-treatment with second agent
NCI-H1793 = conditions: 7 days tazemetostat pre-treatment, 6 days co-treatment with second agent
NCI-H1993 = conditions: 7 days tazemetostat pre-treatment, 6 days co-treatment with second agent
Procedure: (§1) Initial proliferation studies were performed to determine the IC50 of tazemetostat in each cell line. For the screen, tazemetostat was used at concentrations bracketed around the IC50 value. If 50% inhibitory concentration was not reached then tazemetostat was tested starting at 10 μM.
(§2) In order to study the effect of dual combination of tazemetostat and a second agent on cell proliferation, cells in log-linear phase growth rate were pre-treated with various concentrations of tazemetostat or DMSO for 7 days in flasks, plated in 384-well plates in the absence of compounds and co-treated on day 8 with tazemetostat or DMSO and the second agent serially diluted for additional 6 days (as depicted in FIG. 1). On day 15, plates were developed for endpoint analysis using Cell Titer Glo to measure ATP content, which was used as an indicator of cell viability. DMSO concentration was kept constant throughout the assay at 0.15% v/v.

NCI-H2030 = conditions: 7 days tazemetostat pre-treatment, 6 days co-treatment with second agent
NCI-H2110 = conditions: 7 days tazemetostat pre-treatment, 6 days co-treatment with second agent
NCI-H2122 = conditions: 7 days tazemetostat pre-treatment, 6 days co-treatment with second agent
NCI-H23 = conditions: 7 days tazemetostat pre-treatment, 6 days co-treatment with second agent
NCI-H460 = conditions: 7 days tazemetostat pre-treatment, 6 days co-treatment with second agent
NCI-H522 = conditions: 7 days tazemetostat pre-treatment, 6 days co-treatment with second agent
Procedure: as §1, §2

NCI-H661 = conditions: 7 days tazemetostat pre-treatment, 6 days co-treatment with second agent
Procedure: as §1, §2
All cell lines were obtained from American Type Culture Collection (ATCC; Rockville, Md.). […] A427, Calu-3, Calu-6 cell lines were cultured in EMEM+10% Fetal bovine serum (FBS)+1% v/v Penicillin/Streptomycin (P/S).

NCI-H838 = conditions: 7 days tazemetostat pre-treatment, 6 days co-treatment with second agent
Procedure: as §1, §2
(§3) NCI-H1573 was cultured in DMEM: F12 Medium containing the following components: 0.02 mg/ml insulin, 0.01 mg/ml transferrin, 25 nM sodium selenite, 50 nM Hydrocortisone, 1 ng/ml Epidermal Growth Factor, 0.01 mM ethanolamine, 0.01 mM phosphorylethanolamine, 100 pM triiodothyronine, 0.5% (w/v) bovine serum albumin, 0.5 mM sodium pyruvate, 4.5 mM L-glutamine and 1% v/v Pen/Strep.

Calu-3 = conditions: 7 days tazemetostat pre-treatment, 6 days co-treatment with second agent
Calu-6 = conditions: 7 days tazemetostat pre-treatment, 6 days co-treatment with second agent
Procedure: as §1, §2

HCC827 = conditions: 7 days tazemetostat pre-treatment, 6 days co-treatment with second agent
Procedure: as §1, §2, §3

| SMILES | combinatorial effect with tazemetostat (Loewe volume class) (A427) | combinatorial effect with tazemetostat (Loewe volume class) (A549) | combinatorial effect with tazemetostat (Loewe volume class) (NCI-H1299) | combinatorial effect with tazemetostat (Loewe volume class) (NCI-H1573) | combinatorial effect with tazemetostat (Loewe volume class) (NCI-H1703) | combinatorial effect with tazemetostat (Loewe volume class) (NCI-H1793) | combinatorial effect with tazemetostat (Loewe volume class) (NCI-H1993) | combinatorial effect with tazemetostat (Loewe volume class) (NCI-H2030) | combinatorial effect with tazemetostat (Loewe volume class) (NCI-H2110) | combinatorial effect with tazemetostat (Loewe volume class) (NCI-H2122) | combinatorial effect with tazemetostat (Loewe volume class) (NCI-H23) | combinatorial effect with tazemetostat (Loewe volume class) (NCI-H460) | combinatorial effect with tazemetostat (Loewe volume class) (NCI-H522) | combinatorial effect with tazemetostat (Loewe volume class) (NCI-H661) | combinatorial effect with tazemetostat (Loewe volume class) (NCI-H838) | combinatorial effect with tazemetostat (Loewe volume class) (Calu-3) | combinatorial effect with tazemetostat (Loewe volume class) (Calu-6) | combinatorial effect with tazemetostat (Loewe volume class) (HCC827) |
| --- | --- | --- | --- | --- | --- | --- | --- | --- | --- | --- | --- | --- | --- | --- | --- | --- | --- | --- |
| CN(C)C(=O)c1cc2cnc(Nc3ccc(N4CCNCC4)cn3)nc2n1C1CCCC1 [Ribociclib, ribociclib] | Syn. (Loewe volumes greater than 1 denoted “synergy”) | Anta. (volumes <−1 denoted “antagonism”) | Anta. (volumes <−1 denoted “antagonism”) | Syn. (Loewe volumes greater than 1 denoted “synergy”) | Anta. (volumes <−1 denoted “antagonism”) | Syn. (Loewe volumes greater than 1 denoted “synergy”) | Syn. (Loewe volumes greater than 1 denoted “synergy”) | Syn. (Loewe volumes greater than 1 denoted “synergy”) | No eff. | Anta. (volumes <−1 denoted “antagonism”) | No eff. | Add. (A value between −1 and 1 denoted “additivity”) | No eff. | Syn. (Loewe volumes greater than 1 denoted “synergy”) | Add. (A value between −1 and 1 denoted “additivity”) | Syn. (Loewe volumes greater than 1 denoted “synergy”) | No eff. | Add. (A value between −1 and 1 denoted “additivity”) |
| N.N.[Cl][Pt][Cl] [Cisplatin, cisplatin] | Syn. (Loewe volumes greater than 1 denoted “synergy”) | Syn. (Loewe volumes greater than 1 denoted “synergy”) | No eff. | Add. (A value between −1 and 1 denoted “additivity”) | No eff. | No eff. | Syn. (Loewe volumes greater than 1 denoted “synergy”) | Syn. (Loewe volumes greater than 1 denoted “synergy”) | Add. (A value between −1 and 1 denoted “additivity”) | Anta. (volumes <−1 denoted “antagonism”) | Add. (A value between −1 and 1 denoted “additivity”) | Add. (A value between −1 and 1 denoted “additivity”) | Anta. (volumes <−1 denoted “antagonism”) | Syn. (Loewe volumes greater than 1 denoted “synergy”) | Add. (A value between −1 and 1 denoted “additivity”) | Syn. (Loewe volumes greater than 1 denoted “synergy”) | Add. (A value between −1 and 1 denoted “additivity”) | Add. (A value between −1 and 1 denoted “additivity”) |
| Nc1ccn([C@@H]2O[C@H](CO)[C@@H](O)C2(F)F)c(=O)n1 [Gemcitabine, gemcitabine] | Syn. (Loewe volumes greater than 1 denoted “synergy”) | Add. (A value between −1 and 1 denoted “additivity”) | Add. (A value between −1 and 1 denoted “additivity”) | Add. (A value between −1 and 1 denoted “additivity”) | Add. (A value between −1 and 1 denoted “additivity”) | Add. (A value between −1 and 1 denoted “additivity”) | Add. (A value between −1 and 1 denoted “additivity”) | Add. (A value between −1 and 1 denoted “additivity”) | Anta. (volumes <−1 denoted “antagonism”) | Add. (A value between −1 and 1 denoted “additivity”) | Add. (A value between −1 and 1 denoted “additivity”) | Add. (A value between −1 and 1 denoted “additivity”) | Anta. (volumes <−1 denoted “antagonism”) | Syn. (Loewe volumes greater than 1 denoted “synergy”) | Add. (A value between −1 and 1 denoted “additivity”) | Add. (A value between −1 and 1 denoted “additivity”) | Add. (A value between −1 and 1 denoted “additivity”) | Add. (A value between −1 and 1 denoted “additivity”) |
| CC(=O)Nc1cccc(-n2c(=O)n(C3CC3)c(=O)c3c(Nc4ccc(I)cc4F)n(C)c(=O)c(C)c32)c1 [Trametinib, trametinib] | Syn. (Loewe volumes greater than 1 denoted “synergy”) | Anta. (volumes <−1 denoted “antagonism”) | Syn. (Loewe volumes greater than 1 denoted “synergy”) | Syn. (Loewe volumes greater than 1 denoted “synergy”) | Syn. (Loewe volumes greater than 1 denoted “synergy”) | Syn. (Loewe volumes greater than 1 denoted “synergy”) | Syn. (Loewe volumes greater than 1 denoted “synergy”) | Syn. (Loewe volumes greater than 1 denoted “synergy”) | Syn. (Loewe volumes greater than 1 denoted “synergy”) | Anta. (volumes <−1 denoted “antagonism”) | Add. (A value between −1 and 1 denoted “additivity”) | Anta. (volumes <−1 denoted “antagonism”) | Syn. (Loewe volumes greater than 1 denoted “synergy”) | Add. (A value between −1 and 1 denoted “additivity”) | Syn. (Loewe volumes greater than 1 denoted “synergy”) | Syn. (Loewe volumes greater than 1 denoted “synergy”) | Add. (A value between −1 and 1 denoted “additivity”) | Syn. (Loewe volumes greater than 1 denoted “synergy”) |
